Patent US8575188B2 (priority 2009, dated 2013)
Like-named read-outs stand apart in the source and are kept apart here.

Columns and labels:
[1] = test system: DX5, which over expresses the MDR 1 efflux pump; assay: Efflux pump drug resistance, antiproliferation assay, MDR 1 over expressing line; assay type: cell-based; settings: air
Description: (§1) The compounds were screened for cytotoxicity using human non small cell lung cancer cell line H460. […]
(§2) Cellular drug resistance was determined using the antiproliferation assay described above.

[2] = test system: human non small cell lung cancer H-460; assay: Xenograft model, subcutaneous, tumor growth inhibition and body weight loss; settings: for Max. BWL (%): mouse, in vivo, po
Description: (§3) The first three models were produced by subcutaneous implantation of the appropriate number of cells into the flank of the animals. When tumor size was approximately 150 mm^3, animals were randomized into groups of 10 mice each for dosing. One arm was dosed with only vehicle and the results used for the efficacy calculations. […] TGI=(1−T/C) %. T/C ratio was calculated as T/C=(Tn−Ti)/(Cn−Ci), where Tn is tumor volume in treatment group on Day n, and Ti is the initial tumor volume in the treatment group. Cn is the tumor volume of the vehicle group on the last day of measurement. Ci is the initial tumor volume in the vehicle control group. Day n is the last measurement taken when all the animals in the vehicle group were not yet euthanized. Animals were euthanized when tumor volumes grew larger than 2000 mm^3.

human colon cancer HT-29 = assay: as above; settings: for Max. BWL (%): mouse, in vivo, po
Description: as §3

[3] = test system: human prostate cancer cell line LNCap; assay: Antiproliferation assay, 72 hrs under air, Alamar Blue; assay type: cell-based
[4] = In vivo pharmacokinetics, oral gavage; settings: CD, mouse, in vivo, po; for AUC / Cmax: 50 mg/kg
Description: The data normalized to a 50 mg/kg dose are shown below (compounds were dosed at either 25 or 50 mg/kg).

[5] = test system: MRP1 over expressing H69AR line; assay: Efflux pump drug resistance, antiproliferation assay, MRP1 over expressing line; assay type: cell-based; settings: Homo sapiens, air
Description: as §1, §2

[6] = test system: human colon cancer cell line HT-29; assay: Antiproliferation assay, 72 hrs under air, Alamar Blue; assay type: cell-based
[7] = test system: human prostate cancer cell line DU145; assay: as above; assay type: cell-based
[8] = test system: bone marrow progenitor cells; assay: Bone marrow progenitor cell clonogenic assay (CFU-GM), human; settings: read-out: Human CFU-GM (IC50 nM) THLD
Description: (§4) A clonogenic assay was performed using bone marrow progenitor cells derived from the blood of mice and humans.

[9] = as above; settings: human
Description: as §4

[10] = test system: H69 small cell lung cancer line; assay: Efflux pump drug resistance, antiproliferation assay, parent line; assay type: cell-based; settings: air
Description: as §1, §2

pcDNA = assay: as above; assay type: cell-based; settings: air
Description: as §1, §2

[11] = test system: human prostate cancer cell line PC-3; assay: Antiproliferation assay, 72 hrs under air, Alamar Blue; assay type: cell-based; settings: read-out: PC3 IC50
[12] = test system: Messa ovarian carcinoma cell line; assay: Efflux pump drug resistance, antiproliferation assay, parent line; assay type: cell-based; settings: air
Description: […] Cells were treated with test compounds at various concentrations under air for 72 hrs, and then cell viability and proliferation were assessed by Alamar Blue staining.
as §2

[13] = test system: human ovarian cancer cell line IGROV-1; assay: Antiproliferation assay, 72 hrs under air, Alamar Blue; assay type: cell-based
[14] = test system: IGROV1 human ovarian cancer cells; assay: Xenograft model of metastatic ovarian cancer (i.p.), survival
Description: One arm was dosed with only vehicle and the results used for the efficacy calculations. […] A xenograft model of metastatic ovarian cancer was set up by the intraperitoneal (i.p) injection of 3×10^6 IGROV1 human ovarian cancer cells in nude mice. Mice were evaluated twice a week for morbidity and mortality. Kaplan-Meier survival curves were plotted.

[15] = test system: human non small cell lung cancer cell line H460; assay: Antiproliferation (cytotoxicity) assay, 72 hrs under air, Alamar Blue; assay type: cell-based; settings: read-out: IC50
[16] = test system: human melanoma cell line SKMEL-28; assay: Antiproliferation assay, 72 hrs under air, Alamar Blue; assay type: cell-based
[17] = test system: bone marrow progenitor cells; assay: Bone marrow progenitor cell clonogenic assay (CFU-GM), mouse; settings: read-out: Mouse CFU-GM (IC50 nM) THLD
Description: as §4

[18] = as above; settings: mouse
Description: as §4

[19] = Brain penetration, AUC in brain versus AUC plasma; settings: mouse
Description: Certain compounds of the invention were assessed for brain penetration by comparing the AUC for plasma exposure versus the AUC in brain.

[20] = test system: BCRP, which over expressed the breast cancer resistance protein; assay: Efflux pump drug resistance, antiproliferation assay, BCRP over expressing line; settings: for 3d BCRP/pcDNA: 3 days
Description: as §1, §2

[21] = test system: human melanoma cell line MAMLE-3M; assay: Antiproliferation assay, 72 hrs under air, Alamar Blue; assay type: cell-based
[22] = test system: mouse melanoma cell line B-16-F10; assay: as above; assay type: cell-based; settings: B16-F10
[23] = test system: human melanoma cell line A375; assay: as above; assay type: cell-based
[24] = test system: human melanoma cell line SKMEL2; assay: as above; assay type: cell-based
H46O cells = assay: Selective hypoxic activation of 14-nitro prodrugs in cell culture; assay type: cell-based, human; settings: TH1431 at 1 micromolar, 24 hr
Description: H46O cells were grown to a confluent monolayer and then the 14-nitro TH1332 prodrug was added to the media at 5 micromolar concentration. Incubations were done for 24 hour either under air or nitrogen (hypoxia), media and cells were recovered, sonicated and soluble extracts were isolated by acetonitrile precipitation of proteins. The level of amino TH1338 active cytotoxin were quantitated by liquid chromotagraphy mass spectra analysis. The equivalent of 70 nanomolar TH1338 was produced under hypoxia with undetectable levels being produced under air (less than 5 nanomolar).
The analogous experiment was preformed using 1 micromolar concentration of the 14-nitro derivative TH1431. After 24 hr, 180 nanomolar of the 14 amino TH1499 was produced under nitrogen with undetectable levels produced under air (less than 5 nanomolar).

[25] = test system: human prostate cancer PC-3; assay: Xenograft model, subcutaneous, tumor growth inhibition and body weight loss; settings: PC3, PO, QD × 5/wk, 2 weeks, 2 mg/Kg
Description: as §3

[26] = stated as known for topotecan; cited from earlier work
[27] = MDR1, 72 h, 3 days, read-out: Air 3d DX5 prol. IC50
[28] = HT29, PO, QD × 5/wk, 2 weeks, 30 mg/Kg
[29] = 72 h, 3 days, read-out: Air 3d H69ar (MRP1) prol. IC50
[30] = Homo sapiens, HT-29, read-out: HT29 IC50
[31] = 72 h, 3 days, read-out: Air 3d H69 prol. IC50
[32] = 72 h, 3 days, read-out: Air 3d pcDNA prol. IC50
[33] = Homo sapiens, MES-SA, 72 h, 3 days, read-out: Air 3d MESSA prol. IC50
[34] = IGROV1 i.p., median survival treated / vehicle times 100, PO, QD × 5/wk, 4 weeks, 20 mg/Kg
[35] = Homo sapiens, NCI-H460, H460, inhibition of proliferation, 72 hrs under air
[36] = 72 h, read-out: Air 3d BCRP prol. IC50 nM, air, 3 days
[37] = ratio of IC50s, BCRP over expressing versus parent line
[38] = Homo sapiens, SK-MEL-2, read-out: SKMEL-2 IC50
[39] = H460, PO, QD × 5/wk, 2 weeks, 2 mg/Kg
[40] = HT29, PO, QD × 5/wk, 4 weeks, 2 mg/Kg

SMILES: CC[C@@]1(O)C(=O)OCc2c1c(N)c1n(c2=O)Cc2cc3ccccc3nc2-1 [TH1320]
- IC50 [1, 27]: 60 nM
- TGI (%) ([2]; H460, PO, QD × 5/wk, 2 weeks, 30 mg/Kg): 79.2%
- Max. BWL (%) ([2]; 30 mg/kg): 3.8%
- TGI (%) (human colon cancer HT-29; [28]): 44.3%
- Max. BWL (%) (human colon cancer HT-29; 30 mg/kg): 3%
- IC50 ([3]; Homo sapiens, LNCaP): 110 nM
- half-life [4]: 1.98 h
- AUC [4]: 1620 ng·h/mL
- Cmax [4]: 547 ng/mL
- IC50 [5, 29]: 91 nM
- IC50 [6, 30]: 229 nM
- IC50 ([7]; Homo sapiens, DU-145): 50 nM
- IC50 ([8]; Homo sapiens, CFU-GM): 130 nM
- IC90 [9]: 1100 nM
- IC50 [10, 31]: 91 nM
- IC50 (pcDNA; [32]): 7.4 nM
- IC50 ([11]; Homo sapiens): 43 nM
- IC50 [12, 33]: 58 nM
- IC50 ([13]; Homo sapiens, IGROV-1): 120 nM
- T/C [14, 34]: 204
- IC50 [15, 35]: 18 nM
- IC50 ([16]; Homo sapiens, SK-MEL-28): 3000 nM
- IC50 ([17]; Mus musculus, CFU-GM): 710 nM
- IC90 [18]: 4800 nM
- Kp [19]: 1.15
- IC50 [20, 36]: 14 nM
- 3d BCRP/pcDNA [20, 37]: 1.8919
- IC50 ([21]; Homo sapiens): 776 nM
- IC50 [22]: 950 nM
- IC50 ([23]; Homo sapiens, A-375): 22 nM
- IC50 [24, 38]: 170 nM

SMILES: CC[C@@]1(O)C(=O)OCc2c1c(N)c1n(c2=O)Cc2c-1nc1ccccc1c2C [TH1339]
- IC50 [1, 27]: 6.7 nM
- TGI (%) ([2]; H460, PO, QD × 5/wk, 2 weeks, 15 mg/Kg): 46.1%
- Max. BWL (%) ([2]; 15 mg/kg): 0%
- TGI (%) (human colon cancer HT-29; [28]): 56.5%
- Max. BWL (%) (human colon cancer HT-29; 30 mg/kg): 3%
- IC50 ([3]; Homo sapiens, LNCaP): 23 nM
- AUC [4]: 405 ng·h/mL
- Cmax [4]: 378 ng/mL
- IC50 [5, 29]: 28 nM
- IC50 [6, 30]: 69 nM
- IC50 ([7]; Homo sapiens, DU-145): 2.5 nM
- IC50 ([8]; Homo sapiens, CFU-GM): 10 nM
- IC90 [9]: 100 nM
- IC50 [10, 31]: 13 nM
- IC50 (pcDNA; [32]): 2.3 nM
- IC50 ([11]; Homo sapiens): 9 nM
- IC50 [12, 33]: 8.5 nM
- IC50 ([13]; Homo sapiens, IGROV-1): 10 nM
- T/C [14, 34]: 280
- IC50 [15, 35]: 1.8 nM
- IC50 ([16]; Homo sapiens, SK-MEL-28): > 10000 nM
- IC50 ([17]; Mus musculus, CFU-GM): 560 nM
- IC90 [18]: 2200 nM
- IC50 [20, 36]: 2.1 nM
- 3d BCRP/pcDNA [20, 37]: 0.913
- IC50 ([21]; Homo sapiens): 220 nM
- IC50 [22]: 690 nM
- IC50 ([23]; Homo sapiens, A-375): 3 nM
- IC50 [24, 38]: 50 nM

SMILES: CC[C@@]1(O)C(=O)OCc2c1c([N+](=O)[O-])c1n(c2=O)Cc2c-1nc1ccccc1c2/C=N/OC(C)(C)C [TH1431]
- IC50 ([1]; MDR1, 120 h, 5 days, read-out: Air 5d DX5 prol. IC50): 515 nM
- TGI (%) (human colon cancer HT-29; HT29, PO, QD × 5/wk, 2 weeks, 25 mg/Kg): 34.6%
- Max. BWL (%) (human colon cancer HT-29; 25 mg/kg): 1.6%
- AUC [4]: 352 ng·h/mL
- Cmax [4]: 348 ng/mL
- IC50 [5, 29]: > 10000 nM
- IC50 ([5]; 120 h, 5 days, read-out: Air 5d H69ar (MRP1) prol. IC50): 838 nM
- IC50 [6, 30]: 288 nM
- IC50 [10, 31]: 3790 nM
- IC50 ([10]; 120 h, 5 days, read-out: Air 5d H69 prol. IC50): 354 nM
- IC50 (pcDNA; [32]): 461 nM
- IC50 (pcDNA; 120 h, 5 days, read-out: Air 5d pcDNA prol. IC50): 67 nM
- IC50 (pcDNA; 3 days, read-out: Air 3d pcDNA prol. IC50): 900 nM
- IC50 ([11]; Homo sapiens): 29 nM
- IC50 [12, 33]: 2690 nM
- IC50 ([12]; Homo sapiens, MES-SA, 120 h, 5 days, read-out: Air 5d MESSA prol. IC50): 255 nM
- IC50 ([12]; 3 days, read-out: Air 3d MESSA prol. IC50): 3300 nM
- IC50 [15, 35]: 800 nM
- Kp [19]: 0.12
- IC50 ([20]; 120 h, read-out: Air 5d BCRP prol. IC50 nM, air, 5 days): 78 nM
- 5d BCRP/pcDNA ([20]; ratio of IC50s, BCRP over expressing versus parent line, 5 days): 1.1642
- TH1499 produced under air (H46O cells; air, undetectable levels): less than 5 nanomolar
- 14 amino TH1499 produced under nitrogen (H46O cells; nitrogen): 180 nM
- IC50 [22]: 720 nM

SMILES: CC[C@@]1(O)C(=O)OCc2c1cc1n(c2=O)Cc2cc3c(CN(C)C)c(O)ccc3nc2-1 [Topotecan, reference compound]
- Max BWL (%) [2, 39]: 8.9%
- TGI (%) [2, 39]: 46.1%
- Max BWL (%) [25]: 1.3%
- TGI (%) [25]: 79%
- Max BWL (%) (human colon cancer HT-29; [40]): 0%
- TGI (%) (human colon cancer HT-29; [40]): 70.3%
- IC50 [3]: 9 nM
- IC50 ([6]; read-out: HT29 IC50): > 1000 nM
- IC50 [7]: 30 nM
- IC50 [8]: 8 nM
- IC50 [11]: 45 nM
- IC50 [13]: 160 nM
- T/C ([14]; mouse, in vivo, 2 mg/kg): 186
- IC50 [15]: 45 nM
- IC50 [16]: > 10000 nM
- IC50 [17]: 130 nM
- brain levels in mice relative to plasma levels [26]: about 30%
- ratio BCRP over expressing line versus the parent cell line ([20]; not told): 51
- IC50 [21]: 1000 nM
- IC50 [23]: 13 nM
- IC50 ([24]; read-out: SKMEL-2 IC50): 140 nM
